Measurements taken from ChEMBL document CHEMBL5032500, “Adenosine A2AR/A1R Antagonists Enabling Additional H3R Antagonism for the Treatment of Parkinson's Disease” (J Med Chem, 2021).

Tests used:
Assay type in all cases: cell-based
Histamine H3 receptor = Histamine H3 receptor (Homo sapiens, UniProt Q9Y5N1); assay: Displacement of [3H] N-alpha methylhistamine from human recombinant histamine H3 receptor expressed in HEK293 cells measured after 90 mins
Adenosine receptor A2a = Adenosine receptor A2a (Homo sapiens, UniProt P29274); assay: Displacement of [3H]MSX-2 from human recombinant adenosine A2A receptor expressed in CHO cells by liquid scintillation counting analysis
Chain of Adenosine receptor A2a (P29274 whole entry): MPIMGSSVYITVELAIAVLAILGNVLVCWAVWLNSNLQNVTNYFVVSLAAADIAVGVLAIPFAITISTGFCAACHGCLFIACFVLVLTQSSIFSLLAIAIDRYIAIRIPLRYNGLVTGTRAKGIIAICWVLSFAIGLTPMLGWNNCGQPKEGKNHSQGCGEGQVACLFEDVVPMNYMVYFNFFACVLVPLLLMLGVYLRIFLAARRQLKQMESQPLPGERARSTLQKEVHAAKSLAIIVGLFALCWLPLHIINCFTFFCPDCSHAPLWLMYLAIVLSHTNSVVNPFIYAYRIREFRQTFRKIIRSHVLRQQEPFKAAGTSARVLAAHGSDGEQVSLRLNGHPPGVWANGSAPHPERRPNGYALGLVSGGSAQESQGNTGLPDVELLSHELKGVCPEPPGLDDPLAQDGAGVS

[1] = target: T1, Adenosine receptor A3 (Homo sapiens) (UniProt P0DMS8); assay: Displacement of [3H]PSB-11 from human recombinant adenosine A3 receptor expressed in CHO cells at 1 uM by liquid scintillation counting analysis
T1 sequence (whole entry): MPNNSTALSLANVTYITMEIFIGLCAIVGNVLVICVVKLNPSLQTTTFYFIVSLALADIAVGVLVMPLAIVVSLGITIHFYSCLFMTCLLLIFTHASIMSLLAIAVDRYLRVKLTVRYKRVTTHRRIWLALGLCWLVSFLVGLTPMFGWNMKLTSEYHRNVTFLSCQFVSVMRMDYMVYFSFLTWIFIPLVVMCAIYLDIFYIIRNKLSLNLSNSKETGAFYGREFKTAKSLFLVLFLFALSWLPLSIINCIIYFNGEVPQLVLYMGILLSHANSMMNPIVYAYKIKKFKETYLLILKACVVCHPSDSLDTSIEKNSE

Adenosine receptor A1 [2] = target: T2, Adenosine receptor A1 (Homo sapiens, UniProt P30542); assay: Displacement of [3H]CCPA from human recombinant adenosine A1 receptor expressed in CHO cells by liquid scintillation counting analysis
T2 sequence (P30542 whole entry): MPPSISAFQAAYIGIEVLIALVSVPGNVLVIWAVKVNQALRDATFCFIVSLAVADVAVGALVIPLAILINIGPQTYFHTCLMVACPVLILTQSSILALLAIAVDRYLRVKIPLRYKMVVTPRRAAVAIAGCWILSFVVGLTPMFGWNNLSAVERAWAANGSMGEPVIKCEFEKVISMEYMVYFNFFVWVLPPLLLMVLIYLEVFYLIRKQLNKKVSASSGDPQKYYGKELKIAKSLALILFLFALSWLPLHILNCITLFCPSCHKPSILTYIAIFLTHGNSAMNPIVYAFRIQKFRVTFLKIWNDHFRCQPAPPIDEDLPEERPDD

[3] = target: T3, Adenosine receptor A2b (Homo sapiens) (UniProt P29275); assay: Displacement of [3H]PSB-603 from human recombinant adenosine A2B receptor expressed in CHO cells at 1 uM by liquid scintillation counting analysis
T3 sequence (whole entry): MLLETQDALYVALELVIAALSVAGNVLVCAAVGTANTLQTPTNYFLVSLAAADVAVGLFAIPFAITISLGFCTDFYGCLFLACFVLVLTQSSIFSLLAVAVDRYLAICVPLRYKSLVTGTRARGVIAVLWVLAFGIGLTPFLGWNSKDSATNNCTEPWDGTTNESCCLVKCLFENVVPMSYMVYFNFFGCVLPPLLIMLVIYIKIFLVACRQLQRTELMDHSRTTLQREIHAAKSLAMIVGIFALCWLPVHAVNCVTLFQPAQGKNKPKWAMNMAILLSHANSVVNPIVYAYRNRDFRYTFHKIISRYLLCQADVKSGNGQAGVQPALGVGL

Adenosine receptor A3 = target: T4, Adenosine receptor A3 (Homo sapiens, UniProt P0DMS8); assay: Displacement of [3H]PSB-11 from human recombinant adenosine A3 receptor expressed in CHO cells by liquid scintillation counting analysis
T4 sequence (P0DMS8 whole entry): T1 sequence (whole entry)

[4] = target: T5, Adenosine receptor A1 (Homo sapiens) (UniProt P30542); assay: Displacement of [3H]CCPA from human recombinant adenosine A1 receptor expressed in CHO cells at 1 uM by liquid scintillation counting analysis; details: filed as antagonist
T5 sequence (whole entry): T2 sequence (P30542 whole entry)

Adenosine receptor A2b [5] = target: T6, Adenosine receptor A2b (Homo sapiens, UniProt P29275); assay: Displacement of [3H]PSB-603 from human recombinant adenosine A2B receptor expressed in CHO cells by liquid scintillation counting analysis
T6 sequence (P29275 whole entry): T3 sequence (whole entry)

Adenosine receptor A2b [6] = target: T6, Adenosine receptor A2b; assay: Binding affinity to human recombinant adenosine A2B receptor expressed in CHO cells using [3H]PSB-603 by functional activity assay
Adenosine receptor A1 [7] = target: T2, Adenosine receptor A1; assay: Binding affinity to human recombinant adenosine A1 receptor expressed in CHO cells using [3H]CCPA by functional activity assay

Chain of Histamine H3 receptor (Q9Y5N1 whole entry): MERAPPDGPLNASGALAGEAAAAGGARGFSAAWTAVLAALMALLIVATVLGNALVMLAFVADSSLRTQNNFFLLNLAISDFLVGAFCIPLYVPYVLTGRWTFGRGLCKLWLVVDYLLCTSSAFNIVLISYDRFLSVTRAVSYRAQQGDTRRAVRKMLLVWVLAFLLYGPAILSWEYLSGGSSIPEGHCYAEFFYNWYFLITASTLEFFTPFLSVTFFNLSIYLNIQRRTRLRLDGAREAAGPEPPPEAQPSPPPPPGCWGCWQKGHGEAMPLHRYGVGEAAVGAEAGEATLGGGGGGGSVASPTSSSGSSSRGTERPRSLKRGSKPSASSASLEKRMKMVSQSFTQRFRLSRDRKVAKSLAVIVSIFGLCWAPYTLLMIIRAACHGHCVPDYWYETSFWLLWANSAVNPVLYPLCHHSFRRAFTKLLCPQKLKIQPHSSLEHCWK

SMILES	Ki (Histamine H3 receptor) [nM]	Ki (Adenosine receptor A2a) [nM]	inhibition [1] [%]	Ki (Adenosine receptor A1 [2]) [nM]	inhibition [3] [%]	Ki (Adenosine receptor A3) [nM]	inhibition [4] [%]	Ki (Adenosine receptor A2b [5]) [nM]	EC50 (Adenosine receptor A2b [6]) [nM]	EC50 (Adenosine receptor A1 [7]) [nM]
Nc1nc(-c2ccc(OCCCN3CCCCC3)cc2)c2c(n1)-c1ccc(OCCCN3CCCCC3)cc1C2=O	0.31	203	32	≥ 1000	15	> 1000	44	> 1000		
Nc1nc(-c2ccccc2)c2c(n1)-c1ccc(OCCCN3CCCC3)cc1C2=O	31	104		129		846		180		
Nc1nc(-c2ccccc2)c2c(n1)-c1cc(OCCN3CCOCC3)ccc1C2=O						430			230	48
Nc1nc(-c2ccc(OCCCN3CCCCC3)cc2)c2c(n1)-c1ccccc1C2=O	0.28	35.5	33	133		> 1000		331		
